Patent US8178528B2, “Histamine H3 receptor agents, preparation and therapeutic uses” (Eli Lilly and Company, priority 2005, dated 2012)
pKi: −log10 of the molar value.

Molecular target: T1, H3R membranes (H3R8-expressing HEK293 cell line) (Homo sapiens, UniProt Q9Y5N1)
T1 construct: expressed in transfected cells; membranes
Assay: [35S] GTP gamma [S] binding assay
Type: biochemical
Settings: agonist R(-)alpha methylhistamine
Procedure: Membranes isolated as described in (Preparation of Histamine Receptor Subtype Membranes) are used in a [35S]GTPχS functional assay. Binding of [35S]GTPχS to membranes indicates agonist activity. Compounds of the invention of Formula I or Formula II are tested for their ability to inhibit binding in the presence of agonists. Alternately, the same transfected cell lines are used for a cAMP assay wherein H3R agonists inhibit forskolin-activated synthesis of cAMP. Compounds of Formula I or Formula II are tested for their ability to permit forskolin-stimulated cAMP synthesis in the presence of agonist.
cDNA for the human histamine 3 receptor is cloned and expressed as described in (A. Preparation H1R membranes), above. Transfected cells are selected using G418 ([…]), grown, and tested for histamine binding by the SPA described above. For total binding, cells are assayed in a SPA reaction described above containing 50 mM Tris-HCL (assay buffer), pH 7.6, 1 mg wheat germ agglutinin SPA beads (Amersham Pharmacia Biotech, #RPNQ0001), and 1 nM (3H)-n-alpha-methylhistamine (NEN, NET1027) (total volume per well=200 μl). Thioperimide is added to determine non-specific binding. […]
Antagonist activity of selected compounds is tested for inhibition of [35S] […] Plates are counted in Wallac Trilux 1450 Microbeta scintillation counter for 1 minute. […]

T1 sequence (Q9Y5N1 whole entry): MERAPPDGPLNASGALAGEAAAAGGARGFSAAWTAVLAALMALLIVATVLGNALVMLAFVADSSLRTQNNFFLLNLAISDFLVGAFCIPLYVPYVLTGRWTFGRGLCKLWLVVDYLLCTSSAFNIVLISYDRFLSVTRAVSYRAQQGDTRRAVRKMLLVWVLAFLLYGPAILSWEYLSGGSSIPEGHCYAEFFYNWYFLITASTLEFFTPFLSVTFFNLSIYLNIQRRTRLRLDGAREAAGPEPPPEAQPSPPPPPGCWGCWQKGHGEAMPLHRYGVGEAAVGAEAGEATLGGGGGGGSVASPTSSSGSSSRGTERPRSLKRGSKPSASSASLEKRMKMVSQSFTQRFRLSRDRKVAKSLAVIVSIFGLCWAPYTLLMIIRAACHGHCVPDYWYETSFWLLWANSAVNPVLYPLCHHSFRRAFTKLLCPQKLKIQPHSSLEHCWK

Compound	pKi
O=C(c1ccc(C2CCCCC2)cc1)N1CCC[C@H]1CN1CCCC1	7.33
O=C(c1ccc(S(=O)(=O)c2ccccc2)cc1)N1CCC[C@H]1CN1CCCC1	7.92
